# Experimental data reported in patent publication US8604217B2, “Compound, a process for its preparation, a pharmaceutical composition, use of a compound, a method for modulating or regulating serine/threonine kinases and a serine/threonine kinases modulating agent” (Selvita S.A., priority 2009, dated 2013).
# Tests used:
# [1] = tested on: human prostate adenocarcinoma PC3 cells; test: Growth inhibition test (MTS) on PC3 cells; assay type: cell-based; details: Homo sapiens, PC-3, 72 hours, read-out: PC-3 ED50
# [2] = tested on: human chronic myelocytic leukemia K562 cells; test: Growth inhibition test (MTS) on K562 cells; assay type: cell-based; details: Homo sapiens, K562, 72 hours, read-out: K562 ED50
# Experimental: Ten thousand cells of human chronic myelocytic leukemia K562 were inoculated into each well of a 96-well microplate (manufactured by Corning Corp.) using Iscove's MDM medium (culture medium) containing 10% fetal calf serum (FCS). Next day, a dimethyl sulfoxide (DMSO) solution of each test compound prepared in a concentration of 10 mmol/L was further diluted with culture medium to the desired concentrations (0.1, 0.5, 1, 2.5, 5 and 10 micromol/L), and the diluted solution was added to each well. The individual wells were further cultured in 5% carbon dioxide at 37° C. for 72 hours. After completion of the culture, 10 μl MTS (3-(4,5-Dimethyl-2-thiazolyl)-5-(carboxymethoxyphenyl)-2-(4-sulfophenyl)-2H-tetrazolium, inner salt assay (CellTiter96® AQueous One Solution Cell Proliferation Assay, Promega) was added to each well, and culturing was performed in 5% carbon dioxide at 37° C. for 2 hours. Using a microplate spectrophotometer (Synergy 2 multi-mode microplate reader (BioTek)), the absorbance of each well was measured at 490 nm. The value for cells not incorporated with a test compound was designated as 100%. By comparing these values with the absorbance difference obtained at the well in which each test compound was added, the cell viability (% viability) after treatment with the test compound was calculated.
# [3] = tested on: human myelomonocytic, biphenotypic leukemia MV4-11 cells; test: Growth inhibition test (MTS) on MV4-11 cells; assay type: cell-based; details: Homo sapiens, MV4-11, 72 hours, read-out: MV-4-11 ED50
# How it was run: MV4-
# [4] = biological target: PIM-1 (Homo sapiens (Human), UniProt P11309); test: Luminometric kinase assay for PIM1 kinase (Kinase-Glo); assay type: biochemical; details: 1 μM ATP, 25 min at RT
# How it was run: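 Kinase and substrate reacted in 8 mM MOPS/NaOH pH7.0, 0.2 mM EDTA, 2 mM MgCl2 with 1 μM ATP for 25 min at RT, compounds serially diluted from 1 μM. Remaining ATP read by Kinase-Glo luminescence; IC50 from variable-slope sigmoidal fit.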
# [5] = tested on: human colorectal adenocarcinoma SW480 cells; test: Growth inhibition test (MTS) on SW480 cells; assay type: cell-based; details: Homo sapiens, SW480, 72 hours, read-out: SW480 ED50
# Sequence of PIM-1 (P11309 whole entry): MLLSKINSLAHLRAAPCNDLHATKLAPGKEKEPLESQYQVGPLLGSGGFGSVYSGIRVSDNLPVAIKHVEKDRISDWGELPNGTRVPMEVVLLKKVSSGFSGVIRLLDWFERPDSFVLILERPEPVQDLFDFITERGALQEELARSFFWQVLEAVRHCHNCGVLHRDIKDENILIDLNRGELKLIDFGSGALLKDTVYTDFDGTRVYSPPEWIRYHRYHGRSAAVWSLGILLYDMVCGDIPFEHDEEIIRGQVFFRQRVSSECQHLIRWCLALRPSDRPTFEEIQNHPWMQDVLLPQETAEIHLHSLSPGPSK
Structure (SMILES),IC50 [1] [µM],IC50 [2] [µM],IC50 [3] [µM],IC50 [4] [µM],IC50 [5] [µM]
"NCCCNc1nc2c(Br)c(Br)c(Br)c(Br)c2[nH]1 [Compound 11, N-(3-aminopropyl)-4,5,6,7-tetrabromo-1H-benzo[d]imidazol-2-amine]",4.9,7.47,1.03,0.00589,2.47
"Brc1c(Br)c(Br)c2[nH]c(N3CCNCC3)nc2c1Br [Compound 20, 4,5,6,7-tetrabromo-2-(piperazin-1-yl)-1H-benzo[d]imidazole]",5.14,6.46,0.48,0.0169,3.45
"NC1CCC(Nc2nc3c(Br)c(Br)c(Br)c(Br)c3[nH]2)CC1 (stereo not drawn) [Compound 87, N1-(4,5,6,7-tetrabromo-1H-benzo[d]imidazol-2-yl)cyclohexane-1,4-diamine]",5.65,5.59,4.2,0.0151,2.03
"NC1CCCC(Nc2nc3c(Br)c(Br)c(Br)c(Br)c3[nH]2)C1 (stereo not drawn) [Compound 336, N1-(4,5,6,7-tetrabromo-1H-benzo[d]imidazol-2-yl)cyclohexane-1,3-diamine]",8.4,6.88,2.6,0.0188,4.15
"Brc1c(Br)c(Br)c2[nH]c(N[C@H]3COC[C@@H]3N3CCCC3)nc2c1Br [Compound 337, 4,5,6,7-tetrabromo-N-((3R,4R)-tetrahydro-4-(pyrrolidin-1-yl)furan-3-yl)-1H-benzo[d]imidazol-2-amine]",3.83,3.02,2.45,0.0256,1.61
"Brc1c(Br)c(Br)c2[nH]c(N[C@H]3COC[C@@H]3N3CCCCC3)nc2c1Br [Compound 338, 4,5,6,7-tetrabromo-N-((3R,4R)-tetrahydro-4-(piperidin-1-yl)furan-3-yl)-1H-benzo[d]imidazol-2-amine]",4.76,5.03,3.3,0.0217,1.95
"NCc1ccccc1CNc1nc2c(Br)c(Br)c(Br)c(Br)c2[nH]1 [Compound 349, N-(2-(aminomethyl)benzyl)-4,5,6,7-tetrabromo-1H-benzo[d]imidazol-2-amine]",4.7,6.51,1.58,0.0698,1.61
"CN1CCCC(Nc2nc3c(Br)c(Br)c(Br)c(Br)c3[nH]2)CC1 (stereo not drawn) [Compound 358, 4,5,6,7-tetrabromo-N-(1-methylazepan-4-yl)-1H-benzo[d]imidazol-2-amine]",6.2,6.64,1,0.00582,2.42
"CC(C)n1c(N2CCNCC2)nc2c(Br)c(Br)c(Br)c(Br)c21 [Compound 359, 4,5,6,7-tetrabromo-1-isopropyl-2-(piperazin-1-yl)-1H-benzo[d]imidazole]",2.95,3.05,0.6,0.00684,1.6
"C[C@@H]1CN(c2nc3c(Br)c(Br)c(Br)c(Br)c3[nH]2)[C@@H](C)CN1 [Compound 364, 4,5,6,7-tetrabromo-2-((2S,5R)-2,5-dimethylpiperazin-1-yl)-1H-benzo[d]imidazole]",4.58,5.21,1.97,0.0103,1.27
"Brc1c(Br)c(Br)c2[nH]c(NC3CCCNCC3)nc2c1Br (stereo not drawn) [Compound 366, N-(azepan-4-yl)-4,5,6,7-tetrabromo-1H-benzo[d]imidazol-2-amine]",5.6,5.04,0.6,0.0035,2.84
"CC(C)NC1CCCCC1Nc1nc2c(Br)c(Br)c(Br)c(Br)c2[nH]1 (stereo not drawn) [Compound 369, N1-(4,5,6,7-tetrabromo-1H-benzo[d]imidazol-2-yl)-N2-isopropylcyclohexane-1,2-diamine]",2.45,3.53,1.3,0.0411,0.55
"Brc1c(Br)c(Br)c2c(nc(N3CCNCC3)n2Cc2ccccc2)c1Br [Compound 374, 1-benzyl-4,5,6,7-tetrabromo-2-(piperazin-1-yl)-1H-benzo[d]imidazole]",2.5,2.94,1.3,0.107,1.44
"CN(C)C1CCCN(c2nc3c(Br)c(Br)c(Br)c(Br)c3[nH]2)C1 (stereo not drawn) [Compound 378, 1-(4,5,6,7-tetrabromo-1H-benzo[d]imidazol-2-yl)-N,N-dimethylpiperidin-3-amine]",6.66,–,6.15,0.0391,5
"Brc1c(Br)c(Br)c2[nH]c(N3CCC(C4CCNCC4)CC3)nc2c1Br [Compound 386, 4,5,6,7-tetrabromo-2-(4-(piperidin-4-yl)piperidin-1-yl)-1H-benzo[d]imidazole]",2.77,2.86,3.31,0.058,1.77
"CCCCCNC1CCCCC1Nc1nc2c(Br)c(Br)c(Br)c(Br)c2[nH]1 (stereo not drawn) [Compound 413, N1-(4,5,6,7-tetrabromo-1H-benzo[d]imidazol-2-yl)-N2-pentylcyclohexane-1,2-diamine]",1.45,2.73,1.55,0.119,0.58
"CCn1c(N2CCNCC2)nc2c(Br)c(Br)c(Br)c(Br)c21 [Compound 416, 4,5,6,7-tetrabromo-1-ethyl-2-(piperazin-1-yl)-1H-benzo[d]imidazole]",2.1,3.65,0.55,0.00655,1.25
"CCCn1c(N2CCNCC2)nc2c(Br)c(Br)c(Br)c(Br)c21 [Compound 417, 4,5,6,7-tetrabromo-2-(piperazin-1-yl)-1-propyl-1H-benzo[d]imidazole]",2.57,4.96,0.56,0.00936,2.56
"Brc1c(Br)c(Br)c2[nH]c(NC3CCNCC3)nc2c1Br [Compound 435, 4,5,6,7-tetrabromo-N-(piperidin-4-yl)-1H-benzo[d]imidazol-2-amine]",5.79,5.64,0.68,0.00668,1.27
"CCn1c(N2CCN(CCN3CCNCC3)CC2)nc2c(Br)c(Br)c(Br)c(Br)c21 [Compound 441, 4,5,6,7-tetrabromo-1-ethyl-2-(4-(2-(piperazin-1-yl)ethyl)piperazin-1-yl)-1H-benzo[d]imidazole]",1.6,1.65,0.7,0.065,0.7
CCn1c(N2CCN(CCCN3CCOCC3)CC2)nc2c(Br)c(Br)c(Br)c(Br)c21 [Compound 450],3.6,2.9,0.6,0.125,1
"Brc1c(Br)c(Br)c2c(Br)n[nH]c2c1Br [Compound K64, 3,4,5,6,7-pentabromo-1H-indazole, reference compound]",> 10,> 10,> 10,> 1,9.13
"CN(C)c1nc2c(Br)c(Br)c(Br)c(Br)c2n1CC(=O)O [Compound K66, 1-carboxymethyl-2-dimethylamino-4,5,6,7-tetrabromo-benzimidazole, reference compound]",> 10,> 10,> 10,> 1,> 10
"CN(C)c1nc2c(Br)c(Br)c(Br)c(Br)c2[nH]1 [DMAT, 2-dimethylamino-4,5,6,7-tetrabromo-1H-benzimidazole, reference compound]",> 10,> 10,3.15,0.031,> 10
"Brc1c(Br)c(Br)c2[nH]nnc2c1Br [TBB, 4,5,6,7-tetrabromo-1Hbenzotriazole, reference compound]",> 10,> 10,> 10,> 1,> 10
"Brc1c(Br)c(Br)c2[nH]cnc2c1Br [TBI, 4,5,6,7-tetrabromo-1H-benzimidazole, reference compound]",> 10,> 10,> 10,0.102,7.21
